Where two headings read alike, the source gives them in different places.
Assays:
[1] = target: T1, 11β-HSD1 in 3T3-L1 adipocytes (Mus musculus, UniProt P50172); assay: 11β-HSD1 activity assay in 3T3-L1 adipocytes; type: cell-based; details: for IC50: 1 h incubation, averages of three determinations, read-out: IC50, cellular assay on 3T3-L1 adipocyte against 11β-HSD1; for Emax: read-out: Max effect
T1 construct: endogenous in cells; host or cells: 3T3-L1 adipocytes
Protocol: 11β-HSD1 enzyme inhibition in adipose tissue is believed to be important for achieving efficacy in vivo [11, 12]. Derivatives with potent enzymatic potency and excellent selectivity profiles (13, 14, 17, 28a, 28b and 30) were also evaluated their 11β-HSD1 inhibition in 3T3-L1 adipocyte.
The reductase activity of 11β-HSD1 in intact 3T3-L1 adipocytes was determined by measuring the rate of conversion of cortisone to cortisol. To explore the effect of compounds on 11β-HSD1 reductase activity, 3T3-L1 adipocytes were incubated for 1 h at 37 °C in serum-free DMEM containing 6.25 nmol/L [1,2-(N)^3H]-cortisone and different concentrations of compounds, according to experimental design. 0.1% DMSO was set as the vehicle control and MK544 was set as the positive control. At the end of the incubation, 80 μL of medium was pipetted into a transparent bottom 96-well plate, and 35 μL of SuperBlock Blocking Buffer containing 10 g/L of protein A-coated yttrium silicate beads and 3 mg/L of anti-cortisol antibodies was added. The mixtures were shaken in the dark for 2 h and then used for liquid scintillation readings. The inhibition effect was calculated by the following equation: Inhibition%=Data(compound)-Data(DMSO Vehicle)/Data(MK54410μM)-Data(DMSO Vehicle)×100%.

11β-HSD1 in liver = target: T2, 11β-HSD1 in liver (Mus musculus, UniProt P50172); assay: Measurement of 11β-HSD1 activity in liver of ob/ob mice; type: in vivo; details: single oral dose 300 mg/kg
T2 construct: from tissue
T2 sequence (P50172 whole entry): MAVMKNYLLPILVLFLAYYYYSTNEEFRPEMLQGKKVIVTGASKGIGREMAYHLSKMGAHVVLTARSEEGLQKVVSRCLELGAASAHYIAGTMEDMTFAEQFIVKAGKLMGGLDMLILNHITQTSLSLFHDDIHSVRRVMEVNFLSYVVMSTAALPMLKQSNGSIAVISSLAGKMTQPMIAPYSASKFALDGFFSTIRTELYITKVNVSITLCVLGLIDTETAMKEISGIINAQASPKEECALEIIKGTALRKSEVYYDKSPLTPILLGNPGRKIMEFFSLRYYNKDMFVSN
Protocol: After single oral administration of 1, 17 or 30 at dose of 300 mg/kg to ob/ob mice, the enzymatic activity of 11β-HSD1 in liver was measured.
B6.V-Lepob/Lepob mice (Jackson Laboratory, Bar Harbor, ME, USA) were bred at the Shanghai Institute of Materia Medica, Chinese Academy of Sciences. All mice were housed in a specific, pathogen-free class laboratory and were maintained at a controlled room temperature (22–24 °C) under a 12 h light–dark cycle with free access to water and food. The animal experiments were conducted in accordance with the guides by the Institutional Animal Care and Utilization Committee (IACUC) of Shanghai Institute of Materia Medica (SIMM), Chinese Academy of Sciences (CAS). The protocol was approved by the IACUC, SIMM, CAS with accreditation number of 2017-08-LY-67. All animal experiment complied with the ARRIVE guidelines for the care and use of laboratory animals.
Ob/ob mice (10 weeks’ old) were given a single dose of 1, 17, 30 (300 mg/kg) or vehicle (0.5% carboxymethyl cellulose, CMC), p.o. After 4 h and 8 h, animals were euthanized with an i.p injection of sodium pentobarbital (60 mg/kg) and the livers were isolated and stored as described above. The liver tissue was homogenized (1 mg/mL) in cold homogenization buffer, and […] of liver homogenates was used to analyze the 11β-HSD1 activity by SPA, as previously described.

human 11β-HSD1 = human 11β-HSD1 (Homo sapiens, UniProt P28845); assay: scintillation proximity assay (SPA), microsomes of HEK-293 cells transfected with human 11β-HSD1; details: for Human SI (selectivity index): SI = IC50(HSD2)/IC50(HSD1); for inhibition at 1 µM: read-out: Inhibitory ratio h-HSD1, at 1.0 μM, averages of three determinations
Sequence of human 11β-HSD1 (P28845 whole entry): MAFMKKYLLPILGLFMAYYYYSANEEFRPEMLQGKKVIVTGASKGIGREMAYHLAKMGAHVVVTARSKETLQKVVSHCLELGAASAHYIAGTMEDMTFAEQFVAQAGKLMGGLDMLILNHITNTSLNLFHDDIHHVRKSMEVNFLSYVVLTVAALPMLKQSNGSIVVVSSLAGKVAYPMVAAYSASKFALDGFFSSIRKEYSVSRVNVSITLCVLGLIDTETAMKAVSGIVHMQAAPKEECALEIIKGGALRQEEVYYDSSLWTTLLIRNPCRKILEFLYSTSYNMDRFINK
Protocol: (§1) With diverse tanshinones in hand, inhibition of human and mouse 11β-HSD1 enzymatic potency was measured by scintillation proximity assay (SPA) using microsomes containing 11β-HSD1 [46, 47]. Results are reported as the average of two or three independent experiments at each concentration.
(§2) The SPA was used to screen for inhibitors of 11β-HSDs [48], with the microsome fractions prepared from the HEK-293 cells stably transfected with either human or mouse 11β-HSD1 or 11β-HSD2 as the enzyme source. […] Reactions were initiated by the addition of 11β-HSD1 or 11β-HSD2, enzyme. […] The plates were incubated under plastic film on an orbital shaker for 120 min at room temperature before counting. The amount of [^3H]-cortisol generated in 11β-HSD1 enzyme reaction or remaining from the 11β-HSD2 enzyme reaction was captured by the beads and determined in a microplate liquid scintillation counter. The % inhibition was calculated relative to a non-inhibited control. Data were obtained from two or three independent experiments. IC50 values were calculated from concentration–response curves by a non-linear regression analysis using Prism Version 6.

mouse 11β-HSD1 = mouse 11β-HSD1 (Mus musculus, UniProt P50172); assay: scintillation proximity assay (SPA), microsomes of HEK-293 cells transfected with mouse 11β-HSD1; details: for Mouse SI (selectivity index): SI = IC50(HSD2)/IC50(HSD1); for inhibition at 1 µM: read-out: Inhibitory ratio m-HSD1, at 1.0 μM, averages of three determinations
Sequence of mouse 11β-HSD1 (P50172 whole entry): as the sequence (P50172 whole entry) above
Protocol: as §1, §2

mouse 11β-HSD2 = target: T3, mouse 11β-HSD2 (Mus musculus, UniProt P51661); assay: scintillation proximity assay (SPA), microsomes of HEK-293 cells transfected with mouse 11β-HSD2
T3 sequence (P51661 1-386): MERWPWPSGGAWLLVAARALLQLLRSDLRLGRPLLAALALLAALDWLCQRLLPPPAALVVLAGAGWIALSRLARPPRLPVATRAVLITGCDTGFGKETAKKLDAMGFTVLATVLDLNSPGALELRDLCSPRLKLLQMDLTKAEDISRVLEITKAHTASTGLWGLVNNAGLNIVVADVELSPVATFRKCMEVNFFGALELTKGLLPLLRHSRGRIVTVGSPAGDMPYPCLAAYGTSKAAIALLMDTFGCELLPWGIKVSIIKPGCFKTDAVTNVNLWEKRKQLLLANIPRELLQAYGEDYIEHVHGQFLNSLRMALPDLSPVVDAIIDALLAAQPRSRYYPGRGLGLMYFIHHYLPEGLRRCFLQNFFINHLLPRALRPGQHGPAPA
Protocol: as §1, §2

human 11β-HSD2 = target: T4, human 11β-HSD2 (Homo sapiens, UniProt P80365); assay: scintillation proximity assay (SPA), microsomes of HEK-293 cells transfected with human 11β-HSD2
T4 sequence (P80365 1-405): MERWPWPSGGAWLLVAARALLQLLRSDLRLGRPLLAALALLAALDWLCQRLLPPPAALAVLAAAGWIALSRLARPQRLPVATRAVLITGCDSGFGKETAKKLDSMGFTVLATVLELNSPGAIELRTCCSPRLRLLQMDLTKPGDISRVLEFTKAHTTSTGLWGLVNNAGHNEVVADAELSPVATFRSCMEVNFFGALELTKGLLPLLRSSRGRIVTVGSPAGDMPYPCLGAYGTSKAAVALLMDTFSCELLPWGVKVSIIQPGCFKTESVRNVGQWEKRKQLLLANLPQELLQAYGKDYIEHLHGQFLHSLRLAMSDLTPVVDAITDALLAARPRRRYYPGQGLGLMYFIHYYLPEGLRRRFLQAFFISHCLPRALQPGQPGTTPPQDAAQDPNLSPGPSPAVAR
Protocol: as §1, §2

[2] = inhibition relative to MK544 10 μM

T1 sequence (P50172 whole entry): as the sequence (P50172 whole entry) above

Compound	IC50 [1]	Emax [1, 2]	decrease in 11β-HSD1 activity in liver (11β-HSD1 in liver; 4 h after treatment)	decrease in 11β-HSD1 activity in liver (11β-HSD1 in liver; 8 h after treatment)	IC50 (human 11β-HSD1)	Human SI (selectivity index) (human 11β-HSD1; Table 1)	inhibition at 1 µM (human 11β-HSD1)	IC50 (mouse 11β-HSD1)	Mouse SI (selectivity index) (mouse 11β-HSD1; Table 1)	Mouse SI (selectivity index) (mouse 11β-HSD1; Table 3)	inhibition at 1 µM (mouse 11β-HSD1)	IC50 (mouse 11β-HSD2)	IC50 (mouse 11β-HSD2; read-out: Mouse (IC50) 11β-HSD2, Table 3, averages of two determinations)	IC50 (human 11β-HSD2)	Human SI (selectivity index) (human 11β-HSD1; Table 3)	Max effect [1, 2]
Cc1coc2c1C(=O)C(=O)c1c-2ccc2c1CCCC2(C)C [Compound 1, tanshinone IIA]	2 ± 0.6 µM	104 ± 1%	32.9%	48.4%	0.0353 ± 0.0154 µM	3838	76.6 ± 1.3%	0.0322 ± 0.0025 µM	> 31,250	> 31,055.9	89.6 ± 0.6%	> 1000 µM	> 1000 µM	135 ± 72.5 µM	–	–
C[C@H]1COC2=C1C(=O)C(=O)c1c2ccc2c1CCCC2(C)C [Compound 2, cryptotanshinone]	–	–	–	–	0.0731 ± 0.0313 µM	–	91.3 ± 0.1%	0.0418 ± 0.0087 µM	> 23,923	–	89.9 ± 3.7%	> 1000 µM	–	12.1 µM	–	–
Cc1coc2c1C(=O)C(=O)c1ccccc1-2 [Compound 10]	–	–	–	–	0.121 µM	–	87.6 ± 2.2%	0.0665 ± 0.0056 µM	–	> 150.3	89.9 ± 0.9%	> 10 µM	–	> 10 µM	> 82.5	–
Cc1coc2c1C(=O)C(=O)c1c-2ccc2c1C=CCC2(C)C [Compound 13]	7.9 µM	102 ± 0.3%	–	–	0.27 µM	–	67.4 ± 1.6%	0.0593 ± 0.0095 µM	–	> 1689.2	92.3 ± 2.7%	> 100 µM	–	2.7 ± 1 µM	9.9	–
Cc1coc2c1C(=O)C(=O)c1c-2ccc2c1C=CC(=O)C2(C)C [Compound 14]	> 4 µM	104 ± 1.2%	–	–	0.3 µM	–	57.2 ± 2%	0.0539 ± 0.0093 µM	–	> 1855.3	85.9 ± 1.6%	> 100 µM	–	5.9 ± 3.4 µM	19.6	–
CC(=O)OC1CCc2c(ccc3c2C(=O)C(=O)c2c(C)coc2-3)C1(C)C (stereo not drawn) [Compound 16]	–	–	–	–	0.89 ± 0.1 µM	–	50.3 ± 2.7%	0.0101 ± 0.0008 µM	–	> 9900.9	89.3 ± 1.5%	> 100 µM	–	7.3 ± 2.2 µM	8.2	–
Cc1coc2c1C(=O)C(=O)c1c-2ccc2c1C[C@@H](O)CC2(C)C [Compound 19]	–	–	–	–	0.32 µM	–	63.9 ± 2.7%	0.0484 ± 0.0066 µM	–	> 206.6	86.7 ± 2.1%	> 10 µM	–	2.7 ± 0.5 µM	8.3	–
Cc1c(-c2ccncc2)oc2c1C(=O)C(=O)c1c-2ccc2c1CCCC2(C)C [Compound 27c]	–	–	–	–	0.126 ± 0.0005 µM	–	82.5 ± 0.9%	0.0069 ± 0.0012 µM	–	> 1451.4	70.6 ± 0.5%	> 10 µM	–	6.1 ± 0.7 µM	48.4	–
Cc1c(COCO)oc2c1C(=O)C(=O)c1c-2ccc2c1CCCC2(C)C [Compound 28a]	3.9 ± 0.1 µM	104 ± 0.9%	–	–	0.149 ± 0.0339 µM	–	74.3 ± 2.1%	0.0793 ± 0.0162 µM	–	> 1261.0	79.2 ± 2.2%	> 100 µM	–	4.1 ± 0.7 µM	27.5	–
Cc1c(CO)oc2c1C(=O)C(=O)c1c-2ccc2c1CCCC2(C)C [Compound 28b]	3.1 ± 0.6 µM	100 ± 4%	–	–	0.0998 ± 0.0105 µM	–	75.3 ± 0.8%	0.0702 ± 0.0134 µM	–	> 1426.5	88.5 ± 0.1%	> 100 µM	–	6.3 ± 0.9 µM	62.9	–
Cc1c(CN(C)C)oc2c1C(=O)C(=O)c1c-2ccc2c1CCCC2(C)C [Compound 29a]	–	–	–	–	0.038 ± 0.0004 µM	–	92.1 ± 2.4%	0.0171 ± 0.0009 µM	–	> 5813.9	96.6 ± 0.6%	> 100 µM	–	5.6 ± 0.9 µM	147.9	–
Cc1c(CN2CCCCC2)oc2c1C(=O)C(=O)c1c-2ccc2c1CCCC2(C)C [Compound 29b]	–	–	–	–	0.0426 ± 0.0044 µM	–	87.8 ± 0.8%	0.0655 ± 0.0037 µM	–	> 1526.7	89.5%	> 100 µM	–	6.5 ± 3.6 µM	151.9	–
Cc1c(CN2CCN(C)CC2)oc2c1C(=O)C(=O)c1c-2ccc2c1CCCC2(C)C [Compound 29d]	–	–	–	–	0.183 ± 0.0325 µM	–	67.3 ± 3.1%	0.272 ± 0.0602 µM	–	> 367.2	55.6 ± 1.8%	> 100 µM	–	2.5 ± 0.6 µM	13.6	–
CC1(C)CCCc2c1ccc1c2C(=O)C(=O)c2c(CO)coc2-1 [Compound 30]	4.4 ± 0.1 µM	105%	–	41.2%	0.0578 ± 0.013 µM	–	82 ± 2.7%	0.0222 ± 0.0006 µM	–	> 4510.6	98.6 ± 0.7%	> 100 µM	–	–	–	–
Cc1c(Br)oc2c1C(=O)C(=O)c1c-2ccc2c1C=CCC2(C)C [Compound 33]	–	–	–	–	0.21 µM	–	70 ± 0.4%	0.0393 ± 0.0076 µM	–	> 2551.0	87.3 ± 1.3%	> 100 µM	–	1.2 ± 0.5 µM	5.8	–
CC1(C)C(=O)C=Cc2c1ccc1c2C(=O)C(=O)c2c(CO)coc2-1 [Compound 34]	–	–	–	–	0.85 ± 0.2 µM	–	53.9 ± 1.6%	0.0672 ± 0.0064 µM	–	> 1488.1	90.8 ± 1.7%	> 100 µM	–	1.9 ± 0.3 µM	2.2	–
C1CCc2nnc(C34CC5CC(CC(C5)C3)C4)n2CC1 [MK544, reference compound]	0.4 ± 0.1 µM	–	–	–	–	–	–	–	–	–	–	–	–	–	–	98.0 ± 0.7%
